Patent US10689380B1, “Crystalline forms of valbenazine ditosylate” (Farmhispania S.A., priority 2019, dated 2020)

Columns and labels:
[1] = Dynamic Vapour Sorption (DVS) analysis; type: physicochemical; details: 25° C., first cycle
Protocol: (§1) As used herein, DVS means Dynamic Vapour Sorption Analysis. Unless stated otherwise, DVSs were performed according to the following equipment and conditions: DVS-1000 instrument by Surface Measurement Systems was used. Samples were prepared by transferring them into an aluminum crucible and loading this into the DVS. A method utilizing two cycles (0% to 90% RH) and (90% to 0% RH) was run. The equilibrium condition for each step was set to a mass constancy of ±0.001% over 60 min and a maximum time limit of 1440 min for each step. This method was undertaken at 25° C.

[2] = Stability against temperature stress as indicated by DSC and DVS data; type: physicochemical
Protocol: as §1, with “C. As used herein, DSC means Differential Scanning calorimetry Analysis. Unless stated otherwise, DSCs were performed according to the following equipment and conditions: DSC 822e Mettler Toledo. Crucible: Aluminum crucible with a capacity of 40 μL and with hole the lid. Gas: Dry nitrogen 50 mL/min. Method standard: Heating from 30° C. to 300° C. at a rate of 10° C./min.” for “C.”

Substance | polymorphic change associated with the sorption/desorption phenomenon in DVS, based on XRPD analysis ([1]; 70-80% relative humidity) | water sorption by the sample (DVS) ([1]; at 70% relative humidity) | water desorption by the sample (DVS) ([1]; at 80% relative humidity) [%] | water sorption by the sample (DVS) ([1]; at 90% relative humidity) | stability against temperature stress for formulation into an oral solid dosage form [2]
valbenazine ditosylate [Form D] | transformation to polymorphic form II | approximately 6.0% | 4.0 |  | 
valbenazine ditosylate [Form E] |  |  |  | approximately 1.4% | stable against temperature stress
